Counter-ions that a name gives are not always drawn.
Target: T1, Human IP6K1 (Homo sapiens, UniProt Q92551)
T1 construct: GST (N, cleaved yes); made in house; host or cells: C43 E. coli, pGEX-6P-2
Test: IP6K1 high-throughput screen of the Sigma LOPAC (ADP-Glo Max, single point);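 also: final compound concentration 10µM in 5% DMSO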
Assay type: biochemical

[1] = LOPAC single-point screen, ADP-Glo Max raw signal per well
[2] = LOPAC single-point screen, Z-score from raw signal with plate average and StDev
[3] = LOPAC single-point screen, Z-score against plate average and StDev
[4] = LOPAC single-point screen, ADP-Glo Max luminescence raw signal per well
[5] = LOPAC single-point screen, Z-score relative to plate average and StDev
[6] = LOPAC single-point screen, Z-score from plate average and StDev
[7] = Sigma LOPAC single-point screen, ADP-Glo Max raw signal per well
[8] = Sigma LOPAC single-point screen, Z-score from plate average and StDev

T1 sequence (Q92551 whole entry): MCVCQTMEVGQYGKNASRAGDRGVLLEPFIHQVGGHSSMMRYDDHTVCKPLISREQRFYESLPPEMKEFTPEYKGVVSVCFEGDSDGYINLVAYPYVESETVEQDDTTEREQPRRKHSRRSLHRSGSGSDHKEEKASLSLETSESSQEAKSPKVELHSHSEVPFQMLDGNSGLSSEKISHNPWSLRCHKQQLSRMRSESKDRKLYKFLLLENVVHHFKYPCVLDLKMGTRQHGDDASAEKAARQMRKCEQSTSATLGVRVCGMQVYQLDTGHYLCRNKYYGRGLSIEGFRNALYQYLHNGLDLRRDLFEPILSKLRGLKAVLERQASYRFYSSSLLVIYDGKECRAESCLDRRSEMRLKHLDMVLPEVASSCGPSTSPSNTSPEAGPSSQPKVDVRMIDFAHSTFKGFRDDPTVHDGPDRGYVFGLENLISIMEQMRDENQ

With CC[C@H](C)[C@H]1O[C@]2(CC[C@@H]1C)C[C@@H]1C[C@@H](C/C=C(\C)[C@@H](O[C@H]3C[C@H](OC)[C@@H](O[C@H]4C[C@H](OC)[C@@H](O)[C@H](C)O4)[C@H](C)O3)[C@@H](C)/C=C/C=C3\CO[C@@H]4[C@H](O)C(C)=C[C@@H](C(=O)O1)[C@]34O)O2 [Ivermectin] the “Raw Signal” value [1] was 51728 and the Z-score [2] was -0.4479.
With CC[N+](C)(C)Cc1ccccc1Br [Bretylium tosylate] the “Raw Signal” value [1] was 56921 and the Z-score [2] was -0.1747.
With CCOC(=O)C1=C(C)NC(=S)NC1c1cccc(O)c1 (centres unmarked) [Monastrol] the “Raw Signal” value [1] was 54262 and the Z-score [3] was -0.0221.
N#Cc1c(-c2ccccc2)no[n+]1[O-] [4-Phenyl-3-furoxancarbonitrile] was tested, and the “Raw Signal” value [1] was 53966 and the Z-score [3] was -0.07183.
O=c1[nH]c2ccccc2n1CCCN1CCC(n2c(=O)[nH]c3cc(Cl)ccc32)CC1 [Domperidone] was tested, and the “Raw Signal” value [4] was 51707 and the Z-score [5] was -0.7027.
In the case of Cc1cn[nH]c1.Cl [4-Methylpyrazole hydrochloride], the “Raw Signal” value [4] is reported as 63526 and the Z-score [6] is reported as 1.5345.
For CC[C@@H](CO)NC(=O)[C@@H]1C=C2c3cccc4[nH]cc(c34)C[C@H]2N(C)C1 [Methylergonovine maleate], the “Raw Signal” value [7] was 56663 and the Z-score [8] was 0.3813.
For CN1C(=O)CCS(=O)(=O)C1c1ccc(Cl)cc1 (centres unmarked) [Chlormezanone], the “Raw Signal” value [4] was 52438 and the Z-score [5] was -0.5542.
With C=C[C@H]1C[N@@]2CC[C@H]1C[C@@H]2[C@@H](O)c1ccnc2ccc(OC)cc12 [Quinidine sulfate] the “Raw Signal” value [1] was 56373 and the Z-score [3] was 0.06784.
With CCn1c(=O)c2nc(-c3ccccc3)[nH]c2n(CC)c1=O [1,3-Diethyl-8-phenylxanthine] the “Raw Signal” value [1] was 56931 and the Z-score [2] was -0.173.
With COc1ccc2c(c1)c(CC(=O)O)c(C)n2Cc1ccc(F)cc1 the “Raw Signal” value [1] was 54531 and the Z-score [2] was -0.1292.
With O=c1cc(-c2ccc(O)cc2)oc2cc(O)cc(O)c12 [Apigenin] the “Raw Signal” value [4] was 54339 and the Z-score [5] was -0.6295.
C=C[C@@]1(C)CC(=O)[C@]2(O)[C@@]3(C)[C@@H](O)CCC(C)(C)[C@@H]3[C@H](O)[C@H](OC(C)=O)[C@@]2(C)O1 [Forskolin] was tested, and the “Raw Signal” value [7] was 61603 and the Z-score [8] was 1.307.
With CC(C)(C=O)Cc1cc(C(C)(C)C)c(O)c(C(C)(C)C)c1 [CGP-13501] the “Raw Signal” value [1] was 59120 and the Z-score [3] was 0.2126.
For CC(C(=O)O)c1cccc(C(=O)c2ccccc2)c1 (centres unmarked) [Ketoprofen], the “Raw Signal” value [1] was 53403 and the Z-score [2] was -0.1664.
For CCCCCCCC/C=C\CCCCCCCC(=O)NCCc1ccc(O)c(O)c1 [N-Oleoyldopamine], the “Raw Signal” value [4] was 53486 and the Z-score [5] was -0.493.
CN(Cc1cnc2nc(N)nc(N)c2n1)c1ccc(C(=O)N[C@@H](CCC(=O)O)C(=O)O)cc1 [Methotrexate] was tested, and the “Raw Signal” value [7] was 60039 and the Z-score [8] was 0.3744.
COc1ccc(CCNC[C@H](O)c2ccc(O)cc2)cc1OC [R(-)-Denopamine] was tested, and the “Raw Signal” value [7] was 58220 and the Z-score [8] was 0.4267.
CN1C[C@H](CNC(=O)OCc2ccccc2)C[C@@H]2c3cccc4c3c(cn4C)C[C@H]21 [Metergoline] was tested, and the “Raw Signal” value [4] was 65696 and the Z-score [6] was 1.899.
With CCNC(=O)[C@H]1O[C@@H](n2cnc3c(NCc4ccccc4)ncnc32)[C@H](O)[C@@H]1O [N6-Benzyl-5 -N-ethylcarboxamidoadenosine] the “Raw Signal” value [1] was 59001 and the Z-score [3] was 0.1916.
With C=CCN1CC[C@]23CCCC[C@H]2[C@H]1Cc1ccc(O)cc13 [Levallorphan tartrate] the “Raw Signal” value [1] was 52542 and the Z-score [2] was -0.3111.
In the case of COc1ccc(CCN)cc1O.Cl, the “Raw Signal” value [1] is reported as 55159 and the Z-score [3] is reported as -0.001632.
In the case of C[C@](N)(Cc1ccc(O)c(O)c1)C(=O)O [L-alpha-Methyl DOPA], the “Raw Signal” value [4] is reported as 24071 and the Z-score [5] is reported as -5.095.
In the case of O=C1CCc2cc(OCCCCc3nnnn3C3CCCCC3)ccc2N1 [Cilostazol], the “Raw Signal” value [1] is reported as 58165 and the Z-score [3] is reported as 0.04437.
In the case of CCCN1CCO[C@@H]2c3cc(O)ccc3OC[C@H]21.Cl [S(+)-PD 128,907 hydrochloride], the “Raw Signal” value [1] is reported as 56406 and the Z-score [3] is reported as 0.07425.
For CC1=C(CC(=O)O)c2cc(F)ccc2/C1=C\c1ccc([S+](C)[O-])cc1 (centres unmarked) [Sulindac], the “Raw Signal” value [4] was 51494 and the Z-score [5] was -0.8801.
CSc1ccc2c(c1)N(CCC1CCCCN1C)c1ccccc1S2 (centres unmarked) [Thioridazine hydrochloride] was tested, and the “Raw Signal” value [1] was 57676 and the Z-score [3] was 0.321.
LY-367,265 was tested, and the “Raw Signal” value [4] was 62501 and the Z-score [6] was 1.362.
With NCC(CP(=O)(O)O)c1ccc(Cl)cc1 (centres unmarked) [Phaclofen] the “Raw Signal” value [7] was 61057 and the Z-score [8] was 0.9779.
For NCC(=O)NCCC(c1ccccc1)c1ccccc1 [N-(3,3-Diphenylpropyl)glycinamide], the “Raw Signal” value [4] was 66051 and the Z-score [6] was 2.21.
With COc1cc2nc(N3CCN(C(=O)C4COc5ccccc5O4)CC3)nc(N)c2cc1OC (centres unmarked) [Doxazosin mesylate] the “Raw Signal” value [7] was 57817 and the Z-score [8] was 0.5382.
For COc1ccc2c(c1OC)C(=O)O[C@@H]2[C@H]1c2c(cc3c(c2OC)OCO3)CCN1C.Cl [Noscapine hydrchloride], the “Raw Signal” value [1] was 53510 and the Z-score [2] was -0.1485.
In the case of Nc1nc2c(nc(Br)n2[C@@H]2O[C@@H]3COP(=O)([O-])O[C@H]3[C@H]2O)c(=O)[nH]1.[Na+] [8-Bromo-cGMP sodium], the “Raw Signal” value [1] is reported as 55323 and the Z-score [2] is reported as -0.4562.
With COc1cc(Cc2cnc(N)nc2N)cc(OC)c1OC [Trimethoprim] the “Raw Signal” value [7] was 61776 and the Z-score [8] was 1.118.
CC(CCc1ccc(O)cc1)NCCc1ccc(O)c(O)c1 (centres unmarked) [Dobutamine hydrochloride] was tested, and the “Raw Signal” value [4] was 52494 and the Z-score [5] was -0.5429.
In the case of Cc1nc2c([nH]1)c(=O)n(C)c(=O)n2Cc1ccco1 [Furafylline], the “Raw Signal” value [1] is reported as 55994 and the Z-score [3] is reported as 0.1679.
In the case of CN(C)CC[C@@H](c1ccc(Cl)cc1)c1ccccn1 [(+)-Chlorpheniramine maleate], the “Raw Signal” value [1] is reported as 57307 and the Z-score [2] is reported as -0.1068.
In the case of NS(=O)(=O)c1cccc2c1c([N+](=O)[O-])cc1nc([O-])c([O-])nc12.[Na+].[Na+] [NBQX disodium], the “Raw Signal” value [1] is reported as 52080 and the Z-score [2] is reported as -0.3887.
For CN1C(C(=O)Nc2ccccn2)=C(O)c2ccccc2S1(=O)=O [Piroxicam], the “Raw Signal” value [7] was 59564 and the Z-score [8] was 0.8688.
With CCNC(=O)[C@H]1O[C@@H](n2cnc3c(N)ncnc32)[C@H](O)[C@@H]1O [5 -N-Ethylcarboxamidoadenosine] the “Raw Signal” value [1] was 52988 and the Z-score [2] was -0.4425.
In the case of CC(Cc1ccc(O)c(O)c1)C(C)Cc1ccc(O)c(O)c1 (centres unmarked), the “Raw Signal” value [1] is reported as 56278 and the Z-score [3] is reported as 0.3166.
CC(=N)NCCCC[C@H](N)C(=O)O.Cl [L-N6-(1-Iminoethyl)lysine hydrochloride] was tested, and the “Raw Signal” value [1] was 52153 and the Z-score [2] was -0.3765.
For CCN(c1nc(N)c(C(=O)NC(=N)N)nc1Cl)C(C)C [5-(N-Ethyl-N-isopropyl)amiloride], the “Raw Signal” value [1] was 57414 and the Z-score [3] was -0.08791.
With CC[C@@H]1Cc2cc(O)ccc2C2=C1c1ccc(O)cc1C[C@H]2CC the “Raw Signal” value [4] was 51869 and the Z-score [5] was -0.6698.
N=C(NCCC[C@H](N)C(=O)O)N[N+](=O)[O-] [NG-Nitro-L-arginine] was tested, and the “Raw Signal” value [7] was 57372 and the Z-score [8] was 0.5005.
In the case of COC(=O)C1=C(C)NC(C)=C([N+](=O)[O-])C1c1ccccc1C(F)(F)F (racemic) [(±)-Bay K 8644], the “Raw Signal” value [4] is reported as 52853 and the Z-score [5] is reported as -0.8912.

From publication PMC5706701, “Development of a homogenous high-throughput assay for inositol hexakisphosphate kinase 1 activity” (PLoS ONE, 2017)
